Test results: PMC4710522, “A Novel Triazolopyridine-Based Spleen Tyrosine Kinase Inhibitor That Arrests Joint Inflammation” (PLoS ONE, 2016)
“And” between values parts separate entries of the source, which are not always exact repeats. Equal values may be shown once.

Columns and labels:
Assay in all cases: SelectScreen kinase assay
Type in all cases: biochemical
MSK1_h = target: T1, MSK1_h (Homo sapiens, UniProt O75582); settings: KM ATP, read-out: % control
T1 construct: purchased Life Technologies (Invitrogen) SelectScreen, Z'-LYTE / Adapta
Method in brief: (§1)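 Single-point inhibition at 3 µM compound. ATP: KM, 10 µM or 100 µM per enzyme as indicated. Output = % control (DMSO = 100%).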

Abl_T315I_h = target: T2, Abl_T315I_h (Homo sapiens, UniProt P00519, T315I); settings: KM ATP, read-out: % control
T2 construct: purchased Life Technologies (Invitrogen) SelectScreen, Z'-LYTE / Adapta
Method in brief: as §1

Fms_h = Fms_h (Homo sapiens, UniProt P07333)
Method in brief: as §1

KDR_h = KDR_h (Homo sapiens, UniProt P35968)
Method in brief: as §1

JAK2-JH1-JH2_V617F_h = target: T3, JAK2-JH1-JH2_V617F_h (Homo sapiens, UniProt O60674, V617F); settings: KM ATP, read-out: % control
T3 construct: purchased Life Technologies (Invitrogen) SelectScreen, Z'-LYTE / Adapta
Method in brief: as §1

TSSK1_h = target: T4, TSSK1_h (Homo sapiens, UniProt Q9BXA7); settings: KM ATP, read-out: % control
T4 construct: purchased Life Technologies (Invitrogen) SelectScreen, Z'-LYTE / Adapta
Method in brief: as §1

LRRK2_h = target: T5, LRRK2_h (Homo sapiens, UniProt Q5S007); settings: KM ATP, read-out: % control
T5 construct: purchased Life Technologies (Invitrogen) SelectScreen, Z'-LYTE / Adapta
Method in brief: as §1

MST3_h = target: T6, MST3_h (Homo sapiens, UniProt Q9Y6E0); settings: KM ATP, read-out: % control
T6 construct: purchased Life Technologies (Invitrogen) SelectScreen, Z'-LYTE / Adapta
Method in brief: as §1

FGFR3_K650E_h = target: T7, FGFR3_K650E_h (Homo sapiens, UniProt P22607, K650E); settings: KM ATP, read-out: % control
T7 construct: purchased Life Technologies (Invitrogen) SelectScreen, Z'-LYTE / Adapta
Method in brief: as §1

Flt3_h = Flt3_h (Homo sapiens, UniProt P36888)
NEK1_h = target: T8, NEK1_h (Homo sapiens, UniProt Q96PY6); settings: KM ATP, read-out: % control
T8 construct: purchased Life Technologies (Invitrogen) SelectScreen, Z'-LYTE / Adapta
Method in brief: as §1

CaMKII-alpha_h = target: T9, CaMKII-alpha_h (Homo sapiens, UniProt Q9UQM7); settings: KM ATP, read-out: % control
T9 construct: purchased Life Technologies (Invitrogen) SelectScreen, Z'-LYTE / Adapta
Method in brief: as §1

CLK3_h = target: T10, CLK3_h (Homo sapiens, UniProt P49761); settings: KM ATP, read-out: % control
T10 construct: purchased Life Technologies (Invitrogen) SelectScreen, Z'-LYTE / Adapta
Method in brief: as §1

Pim-1_h = target: T11, Pim-1_h (Homo sapiens, UniProt P11309); settings: KM ATP, read-out: % control
T11 construct: purchased Life Technologies (Invitrogen) SelectScreen, Z'-LYTE / Adapta
Method in brief: as §1

Ltk_h = target: T12, Ltk_h (Homo sapiens, UniProt P29376); settings: KM ATP, read-out: % control
T12 construct: purchased Life Technologies (Invitrogen) SelectScreen, Z'-LYTE / Adapta
Method in brief: as §1

PrKX_h = target: T13, PrKX_h (Homo sapiens, UniProt P51817); settings: KM ATP, read-out: % control
T13 construct: purchased Life Technologies (Invitrogen) SelectScreen, Z'-LYTE / Adapta
Method in brief: as §1

Ron_h = target: T14, Ron_h (Homo sapiens, UniProt Q04912); settings: KM ATP, read-out: % control
T14 construct: purchased Life Technologies (Invitrogen) SelectScreen, Z'-LYTE / Adapta
Method in brief: as §1

EphB2_h = target: T15, EphB2_h (Homo sapiens, UniProt P29323); settings: KM ATP, read-out: % control
T15 construct: purchased Life Technologies (Invitrogen) SelectScreen, Z'-LYTE / Adapta
Method in brief: as §1

FGFR3_h = target: T16, FGFR3_h (Homo sapiens, UniProt P22607); settings: KM ATP, read-out: % control
T16 construct: purchased Life Technologies (Invitrogen) SelectScreen, Z'-LYTE / Adapta
Method in brief: as §1

ZAP-70_h = ZAP-70_h (Homo sapiens, UniProt P43403)
Method in brief: as §1

Abl_Y253F_h = target: T17, Abl_Y253F_h (Homo sapiens, UniProt P00519, Y253F); settings: KM ATP, read-out: % control
T17 construct: purchased Life Technologies (Invitrogen) SelectScreen, Z'-LYTE / Adapta
Method in brief: as §1

CDK5_p35_h = target: T18, CDK5_p35_h (Homo sapiens, UniProt Q00535); settings: KM ATP, read-out: % control
T18 construct: purchased Life Technologies (Invitrogen) SelectScreen, Z'-LYTE / Adapta
Method in brief: as §1

PKC-delta_h = target: T19, PKC-delta_h (Homo sapiens, UniProt Q05655); settings: KM ATP, read-out: % control
T19 construct: purchased Life Technologies (Invitrogen) SelectScreen, Z'-LYTE / Adapta
Method in brief: as §1

Bmx_h = target: T20, Bmx_h (Homo sapiens, UniProt P51813); settings: KM ATP, read-out: % control
T20 construct: purchased Life Technologies (Invitrogen) SelectScreen, Z'-LYTE / Adapta
Method in brief: as §1

CSK_h = target: T21, CSK_h (Homo sapiens, UniProt P41240); settings: KM ATP, read-out: % control
T21 construct: purchased Life Technologies (Invitrogen) SelectScreen, Z'-LYTE / Adapta
Method in brief: as §1

PTK5_h = target: T22, PTK5_h (Homo sapiens, UniProt P42685); settings: KM ATP, read-out: % control
T22 construct: purchased Life Technologies (Invitrogen) SelectScreen, Z'-LYTE / Adapta
Method in brief: as §1

Tyk2_h = Tyk2_h (Homo sapiens, UniProt P29597)
Method in brief: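 Kinase activity measured by Z'-Lyte or Adapta protocols. Single-point testing used 3 µM compound with ATP at the enzyme's KM, or at 10 or 100 µM as indicated. Values given as % control versus DMSO-only wells (100%).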

CAMK1_h = target: T23, CAMK1_h (Homo sapiens, UniProt Q14012); settings: 10 µM ATP, read-out: % control
T23 construct: purchased Life Technologies (Invitrogen) SelectScreen, Z'-LYTE / Adapta
Method in brief: as §1

PKA_h = target: T24, PKA_h (Homo sapiens, UniProt P17612); settings: KM ATP, read-out: % control
T24 construct: purchased Life Technologies (Invitrogen) SelectScreen, Z'-LYTE / Adapta
Method in brief: as §1

NEK6_h = target: T25, NEK6_h (Homo sapiens, UniProt Q9HC98); settings: KM ATP, read-out: % control
T25 construct: purchased Life Technologies (Invitrogen) SelectScreen, Z'-LYTE / Adapta
Method in brief: as §1

CDK5_p25_h = target: T26, CDK5_p25_h (Homo sapiens, UniProt Q00535); settings: KM ATP, read-out: % control
T26 construct: purchased Life Technologies (Invitrogen) SelectScreen, Z'-LYTE / Adapta
Method in brief: as §1

JAK1_h = JAK1_h (Homo sapiens, UniProt P23458)
Method in brief: as §1

[1] = 3 µM, KM ATP, read-out: % control
[2] = 10-point dose-response, commercial vendor

Tyk2_h, sequence (P29597 whole entry): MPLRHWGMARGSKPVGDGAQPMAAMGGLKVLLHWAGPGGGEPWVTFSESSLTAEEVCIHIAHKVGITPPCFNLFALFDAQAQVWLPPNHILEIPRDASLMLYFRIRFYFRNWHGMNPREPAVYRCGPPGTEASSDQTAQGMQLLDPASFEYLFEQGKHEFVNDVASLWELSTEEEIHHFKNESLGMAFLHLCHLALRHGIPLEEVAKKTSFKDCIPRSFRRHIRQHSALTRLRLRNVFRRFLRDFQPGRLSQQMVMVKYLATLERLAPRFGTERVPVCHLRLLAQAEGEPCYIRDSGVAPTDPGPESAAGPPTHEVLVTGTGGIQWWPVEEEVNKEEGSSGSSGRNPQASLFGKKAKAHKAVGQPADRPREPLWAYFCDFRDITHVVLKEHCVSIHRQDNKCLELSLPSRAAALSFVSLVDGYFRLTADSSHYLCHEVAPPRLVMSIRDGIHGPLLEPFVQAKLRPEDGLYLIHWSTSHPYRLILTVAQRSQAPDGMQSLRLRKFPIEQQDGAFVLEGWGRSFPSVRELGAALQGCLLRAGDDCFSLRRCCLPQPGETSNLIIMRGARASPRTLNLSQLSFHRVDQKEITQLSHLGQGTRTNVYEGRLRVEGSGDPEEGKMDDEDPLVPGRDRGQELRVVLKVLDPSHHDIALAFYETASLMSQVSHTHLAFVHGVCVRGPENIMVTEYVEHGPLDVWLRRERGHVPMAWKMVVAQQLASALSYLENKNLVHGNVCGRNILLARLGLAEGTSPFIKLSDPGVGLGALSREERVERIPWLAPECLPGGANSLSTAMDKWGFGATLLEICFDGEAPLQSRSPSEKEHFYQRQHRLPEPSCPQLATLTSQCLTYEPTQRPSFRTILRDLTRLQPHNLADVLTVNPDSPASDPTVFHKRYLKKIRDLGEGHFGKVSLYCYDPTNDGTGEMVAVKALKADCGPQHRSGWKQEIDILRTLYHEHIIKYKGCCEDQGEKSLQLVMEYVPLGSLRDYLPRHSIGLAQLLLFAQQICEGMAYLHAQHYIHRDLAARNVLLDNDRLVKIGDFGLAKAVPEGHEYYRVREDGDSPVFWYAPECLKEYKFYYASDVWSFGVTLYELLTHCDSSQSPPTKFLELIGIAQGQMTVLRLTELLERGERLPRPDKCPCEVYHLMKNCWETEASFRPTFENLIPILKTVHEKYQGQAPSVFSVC
Flt3_h, sequence (P36888 27-993): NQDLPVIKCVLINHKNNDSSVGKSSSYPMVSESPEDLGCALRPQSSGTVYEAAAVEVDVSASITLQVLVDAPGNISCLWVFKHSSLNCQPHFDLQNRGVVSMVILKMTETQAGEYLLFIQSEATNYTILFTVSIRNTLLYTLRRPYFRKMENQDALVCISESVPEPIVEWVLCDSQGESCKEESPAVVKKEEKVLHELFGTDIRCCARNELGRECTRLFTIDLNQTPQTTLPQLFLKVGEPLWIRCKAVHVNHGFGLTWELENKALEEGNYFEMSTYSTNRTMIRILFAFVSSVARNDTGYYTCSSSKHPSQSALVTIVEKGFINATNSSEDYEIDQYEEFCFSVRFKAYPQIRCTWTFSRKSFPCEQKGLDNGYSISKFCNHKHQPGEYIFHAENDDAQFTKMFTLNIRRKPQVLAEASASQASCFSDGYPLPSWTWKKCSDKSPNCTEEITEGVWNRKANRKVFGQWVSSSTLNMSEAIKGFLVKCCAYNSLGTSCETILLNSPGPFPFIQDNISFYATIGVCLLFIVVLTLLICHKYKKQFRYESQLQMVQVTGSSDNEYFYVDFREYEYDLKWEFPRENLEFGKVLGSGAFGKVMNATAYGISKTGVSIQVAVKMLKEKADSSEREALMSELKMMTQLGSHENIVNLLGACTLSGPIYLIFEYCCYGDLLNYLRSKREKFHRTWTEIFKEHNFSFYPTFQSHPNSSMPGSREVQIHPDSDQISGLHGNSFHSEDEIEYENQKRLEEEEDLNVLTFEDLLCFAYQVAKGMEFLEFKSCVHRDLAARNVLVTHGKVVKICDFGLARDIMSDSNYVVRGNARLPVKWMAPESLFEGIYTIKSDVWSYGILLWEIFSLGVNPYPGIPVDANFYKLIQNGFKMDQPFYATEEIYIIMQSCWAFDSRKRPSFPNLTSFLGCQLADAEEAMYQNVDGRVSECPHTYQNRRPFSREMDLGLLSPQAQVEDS
JAK1_h, sequence (P23458 whole entry): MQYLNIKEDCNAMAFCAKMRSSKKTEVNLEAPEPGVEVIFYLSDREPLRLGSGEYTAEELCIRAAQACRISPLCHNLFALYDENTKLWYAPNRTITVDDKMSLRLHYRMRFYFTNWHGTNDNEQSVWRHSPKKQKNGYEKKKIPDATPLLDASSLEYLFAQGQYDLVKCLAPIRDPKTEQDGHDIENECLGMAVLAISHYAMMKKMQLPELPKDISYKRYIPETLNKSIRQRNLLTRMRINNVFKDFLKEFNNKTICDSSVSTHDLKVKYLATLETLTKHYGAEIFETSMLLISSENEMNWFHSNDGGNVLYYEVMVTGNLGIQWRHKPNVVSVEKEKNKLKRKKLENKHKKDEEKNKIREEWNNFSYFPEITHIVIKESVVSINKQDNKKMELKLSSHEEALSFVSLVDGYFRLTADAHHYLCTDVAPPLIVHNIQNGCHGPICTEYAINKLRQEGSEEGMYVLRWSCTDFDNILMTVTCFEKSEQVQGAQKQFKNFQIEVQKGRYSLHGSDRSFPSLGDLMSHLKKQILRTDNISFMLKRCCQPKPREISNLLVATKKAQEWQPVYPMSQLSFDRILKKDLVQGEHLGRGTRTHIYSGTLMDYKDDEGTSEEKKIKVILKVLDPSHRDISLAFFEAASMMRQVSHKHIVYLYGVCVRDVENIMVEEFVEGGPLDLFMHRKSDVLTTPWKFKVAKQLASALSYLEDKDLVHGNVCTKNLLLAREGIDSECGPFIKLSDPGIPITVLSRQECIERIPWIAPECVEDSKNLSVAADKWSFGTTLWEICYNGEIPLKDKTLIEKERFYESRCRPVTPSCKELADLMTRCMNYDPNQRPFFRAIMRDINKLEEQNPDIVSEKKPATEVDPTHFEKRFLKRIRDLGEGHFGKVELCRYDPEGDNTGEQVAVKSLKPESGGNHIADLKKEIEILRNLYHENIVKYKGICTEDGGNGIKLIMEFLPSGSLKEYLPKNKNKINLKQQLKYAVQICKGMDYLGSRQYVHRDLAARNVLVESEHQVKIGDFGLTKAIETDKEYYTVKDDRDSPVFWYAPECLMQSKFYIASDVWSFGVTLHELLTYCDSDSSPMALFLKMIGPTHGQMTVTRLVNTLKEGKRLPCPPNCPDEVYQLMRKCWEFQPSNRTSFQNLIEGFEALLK
ZAP-70_h, sequence (P43403 whole entry): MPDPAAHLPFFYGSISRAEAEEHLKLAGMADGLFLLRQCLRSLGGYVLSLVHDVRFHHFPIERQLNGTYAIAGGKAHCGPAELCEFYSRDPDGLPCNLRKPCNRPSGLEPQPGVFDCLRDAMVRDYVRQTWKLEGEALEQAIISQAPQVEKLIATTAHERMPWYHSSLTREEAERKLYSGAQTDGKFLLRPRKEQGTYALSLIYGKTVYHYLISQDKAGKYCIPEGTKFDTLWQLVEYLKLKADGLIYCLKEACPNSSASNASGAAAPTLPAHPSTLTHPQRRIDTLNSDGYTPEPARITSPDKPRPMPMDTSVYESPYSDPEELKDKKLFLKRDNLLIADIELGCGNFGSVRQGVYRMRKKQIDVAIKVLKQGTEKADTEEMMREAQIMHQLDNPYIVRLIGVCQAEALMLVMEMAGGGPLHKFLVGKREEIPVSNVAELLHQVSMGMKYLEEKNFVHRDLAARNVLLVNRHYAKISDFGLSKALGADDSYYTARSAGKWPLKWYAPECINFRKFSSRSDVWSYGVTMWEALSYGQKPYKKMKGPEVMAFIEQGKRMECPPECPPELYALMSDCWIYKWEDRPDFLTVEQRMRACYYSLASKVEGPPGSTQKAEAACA
Fms_h, sequence (P07333 20-972): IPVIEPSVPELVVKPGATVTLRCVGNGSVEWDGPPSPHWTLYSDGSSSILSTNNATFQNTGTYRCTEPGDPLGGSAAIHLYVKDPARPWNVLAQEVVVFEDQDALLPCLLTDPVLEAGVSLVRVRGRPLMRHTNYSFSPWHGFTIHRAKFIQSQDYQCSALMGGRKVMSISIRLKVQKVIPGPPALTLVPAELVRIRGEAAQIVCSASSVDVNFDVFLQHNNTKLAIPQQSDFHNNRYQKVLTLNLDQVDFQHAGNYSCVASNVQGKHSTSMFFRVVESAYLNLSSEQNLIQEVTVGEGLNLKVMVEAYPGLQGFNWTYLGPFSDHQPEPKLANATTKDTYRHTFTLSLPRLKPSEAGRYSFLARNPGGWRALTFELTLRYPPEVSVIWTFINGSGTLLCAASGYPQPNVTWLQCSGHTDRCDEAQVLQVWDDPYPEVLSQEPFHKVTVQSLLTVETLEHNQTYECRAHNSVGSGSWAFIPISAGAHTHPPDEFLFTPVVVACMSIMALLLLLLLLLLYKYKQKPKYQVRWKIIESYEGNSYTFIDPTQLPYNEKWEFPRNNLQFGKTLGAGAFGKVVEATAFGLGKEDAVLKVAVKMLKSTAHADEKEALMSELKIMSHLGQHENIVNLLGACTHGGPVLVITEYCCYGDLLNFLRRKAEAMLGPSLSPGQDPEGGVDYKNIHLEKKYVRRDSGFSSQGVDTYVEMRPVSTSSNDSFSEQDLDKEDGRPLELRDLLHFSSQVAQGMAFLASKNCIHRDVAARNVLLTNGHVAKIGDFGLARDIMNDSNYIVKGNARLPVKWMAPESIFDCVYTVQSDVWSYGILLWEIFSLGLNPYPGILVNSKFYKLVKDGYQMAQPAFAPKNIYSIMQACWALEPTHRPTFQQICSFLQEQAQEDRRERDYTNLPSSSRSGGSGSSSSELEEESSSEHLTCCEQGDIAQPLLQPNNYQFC

## c1cc(CC2CCOCC2)n2nc(Nc3ccc4c(NC5CCOCC5)n[nH]c4c3)nc2c1 [CC-509, [3-(2H-3,4,5,6-tetrahydropyran-4-ylamino)(1H-indazol-6-yl)][5-(2H-3,4,5,6-tetrahydropyran-4-ylmethyl)(2H-1,2,4-triazolo[1,5-a]pyridin-2-yl)]amine]
MSK1_h
  remaining activity at 3 µM: 94%
Abl_T315I_h
  remaining activity at 3 µM: 34%
Fms_h; [1]
  remaining activity at 3 µM: 2%
Fms_h; [2]
  IC50: 8.61 nM
KDR_h; [1]
  remaining activity at 3 µM: 3%
KDR_h; [2]
  IC50: 185 nM
JAK2-JH1-JH2_V617F_h
  remaining activity at 3 µM: 8%
TSSK1_h
  remaining activity at 3 µM: 62%
LRRK2_h
  remaining activity at 3 µM: 3%
MST3_h
  remaining activity at 3 µM: 107%
FGFR3_K650E_h
  remaining activity at 3 µM: 54%
Flt3_h; [1]
  remaining activity at 3 µM: 6%
Flt3_h; [2]
  IC50: 140 nM and 143 nM
NEK1_h
  remaining activity at 3 µM: 73%
CaMKII-alpha_h
  remaining activity at 3 µM: 80%
CLK3_h
  remaining activity at 3 µM: 81%
Pim-1_h
  remaining activity at 3 µM: 101%
Ltk_h
  remaining activity at 3 µM: 71%
PrKX_h
  remaining activity at 3 µM: 95%
Ron_h
  remaining activity at 3 µM: 74%
EphB2_h
  remaining activity at 3 µM: 75%
FGFR3_h
  remaining activity at 3 µM: 68%
ZAP-70_h; [1]
  remaining activity at 3 µM: 70%
ZAP-70_h; [2]
  IC50: > 3000 nM
Abl_Y253F_h
  remaining activity at 3 µM: 22%
CDK5_p35_h
  remaining activity at 3 µM: 77%
PKC-delta_h
  remaining activity at 3 µM: 91%
Bmx_h
  remaining activity at 3 µM: 52%
CSK_h
  remaining activity at 3 µM: 70%
PTK5_h
  remaining activity at 3 µM: 86%
Tyk2_h; [1]
  remaining activity at 3 µM: 3%
Tyk2_h; [2]
  IC50: 110 nM and 112 nM
CAMK1_h
  remaining activity at 3 µM: 86%
PKA_h
  remaining activity at 3 µM: 93%
NEK6_h
  remaining activity at 3 µM: 99%
CDK5_p25_h
  remaining activity at 3 µM: 82%
JAK1_h; [1]
  remaining activity at 3 µM: 0%
JAK1_h; [2]
  IC50: 40 nM and 44 nM
